From PubChem BioAssay (NCI)
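1) Cells in 96-well plates. 2) Compound, 48 h, 5 concentrations. 3) Linear interpolation between surrounding doses. 4) Unreached endpoint = highest concentration. Abbreviation: GI50, concentration required for 50% inhibition of growth. TGI denotes the concentration required for complete inhibition of growth.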

Tests used:
Assay in all cases: NCI tumour cell line growth inhibition, 48 h
K-562 leukemia = system: K-562 leukemia
NCI-H460 lung = system: NCI-H460 lung
HCT-116 colon = system: HCT-116 colon
SF-539 CNS = system: SF-539 CNS
DLD-1 colon = system: DLD-1 colon
HL-60(TB) leukemia = system: HL-60(TB) leukemia
SF-268 CNS = system: SF-268 CNS
P388 leukemia = system: P388 leukemia
RPMI-8226 leukemia = system: RPMI-8226 leukemia
HOP-18 NSCLC = system: HOP-18 NSCLC
OVCAR-8 ovarian = system: OVCAR-8 ovarian
HOP-62 NSCLC = system: HOP-62 NSCLC
KM20L2 colon = system: KM20L2 colon
MALME-3M melanoma = system: MALME-3M melanoma
SK-MEL-2 melanoma = system: SK-MEL-2 melanoma
SN12C renal = system: SN12C renal
NCI-H23 lung = system: NCI-H23 lung
NCI-H226 lung = system: NCI-H226 lung
RXF 393 renal = system: RXF 393 renal
HOP-92 NSCLC = system: HOP-92 NSCLC
CCRF-CEM leukemia = system: CCRF-CEM leukemia
NCI/ADR-RES ovarian = system: NCI/ADR-RES ovarian
UO-31 renal = system: UO-31 renal
KM12 colon = system: KM12 colon
SK-MEL-5 melanoma = system: SK-MEL-5 melanoma
DMS 273 small cell lung = system: DMS 273 small cell lung
SF-295 CNS = system: SF-295 CNS
OVCAR-5 ovarian = system: OVCAR-5 ovarian
SN12K1 renal = system: SN12K1 renal
HT29 colon = system: HT29 colon
HCC-2998 colon = system: HCC-2998 colon
COLO 205 colon = system: COLO 205 colon
A498 renal = system: A498 renal
MCF7 breast = system: MCF7 breast
SK-OV-3 ovarian = system: SK-OV-3 ovarian
OVCAR-4 ovarian = system: OVCAR-4 ovarian
NCI-H522 lung = system: NCI-H522 lung
CAKI-1 renal = system: CAKI-1 renal
EKVX NSCLC = system: EKVX NSCLC
SW-620 colon = system: SW-620 colon
SK-MEL-28 melanoma = system: SK-MEL-28 melanoma
A549 NSCLC = system: A549 NSCLC
UACC-62 melanoma = system: UACC-62 melanoma
HCT-15 colon = system: HCT-15 colon
P388/ADR leukemia = system: P388/ADR leukemia
LOX IMVI melanoma = system: LOX IMVI melanoma
M19-MEL melanoma = system: M19-MEL melanoma
IGROV1 ovarian = system: IGROV1 ovarian
SNB-78 CNS = system: SNB-78 CNS
SNB-19 CNS = system: SNB-19 CNS
UACC-257 melanoma = system: UACC-257 melanoma
XF 498 CNS = system: XF 498 CNS
OVCAR-3 ovarian = system: OVCAR-3 ovarian
SNB-75 CNS = system: SNB-75 CNS
U251 CNS = system: U251 CNS
DMS 114 small cell lung = system: DMS 114 small cell lung
SR leukemia = system: SR leukemia
ACHN renal = system: ACHN renal
LXFL 529 NSCLC = system: LXFL 529 NSCLC
MDA-MB-231 breast = system: MDA-MB-231 breast
HS 578T breast = system: HS 578T breast
PC-3 prostate = system: PC-3 prostate
DU-145 prostate = system: DU-145 prostate
BT-549 breast = system: BT-549 breast
RXF-631 renal = system: RXF-631 renal
786-0 renal = system: 786-0 renal
M14 melanoma = system: M14 melanoma
TK-10 renal = system: TK-10 renal
MOLT-4 leukemia = system: MOLT-4 leukemia
T-47D breast = system: T-47D breast
MDA-MB-435 = system: MDA-MB-435

## CCCCC1(C2c3ccccc3Oc3ccccc32)C(=O)N(c2ccccc2)N(c2ccccc2)C1=O
K-562 leukemia
  TGI: > 100 µM
NCI-H460 lung
  TGI: > 100 µM
HCT-116 colon
  TGI: > 100 µM
SF-539 CNS
  TGI: > 100 µM
DLD-1 colon
  TGI: > 100 µM
HL-60(TB) leukemia
  TGI: > 100 µM
SF-268 CNS
  TGI: > 100 µM
P388 leukemia
  TGI: 45.2 µM
RPMI-8226 leukemia
  TGI: > 100 µM
HOP-18 NSCLC
  TGI: > 100 µM
OVCAR-8 ovarian
  TGI: > 100 µM
HOP-62 NSCLC
  TGI: > 100 µM
KM20L2 colon
  TGI: > 100 µM
MALME-3M melanoma
  TGI: > 100 µM
SK-MEL-2 melanoma
  TGI: > 100 µM
SN12C renal
  TGI: > 100 µM
NCI-H23 lung
  TGI: > 100 µM
NCI-H226 lung
  TGI: > 100 µM
RXF 393 renal
  TGI: > 100 µM
HOP-92 NSCLC
  TGI: > 100 µM
CCRF-CEM leukemia
  TGI: > 100 µM
NCI/ADR-RES ovarian
  TGI: > 100 µM
UO-31 renal
  TGI: > 100 µM
KM12 colon
  TGI: > 100 µM
SK-MEL-5 melanoma
  TGI: > 100 µM
DMS 273 small cell lung
  TGI: > 100 µM
SF-295 CNS
  TGI: > 100 µM
OVCAR-5 ovarian
  TGI: > 100 µM
SN12K1 renal
  TGI: > 100 µM
HT29 colon
  TGI: > 100 µM
HCC-2998 colon
  TGI: > 94.5 µM
COLO 205 colon
  TGI: > 100 µM
A498 renal
  TGI: > 100 µM
MCF7 breast
  TGI: > 100 µM
SK-OV-3 ovarian
  TGI: > 100 µM
OVCAR-4 ovarian
  TGI: > 100 µM
NCI-H522 lung
  TGI: 13.1 µM
CAKI-1 renal
  TGI: > 29.6 µM
EKVX NSCLC
  TGI: > 100 µM
SW-620 colon
  TGI: > 100 µM
SK-MEL-28 melanoma
  TGI: > 100 µM
A549 NSCLC
  TGI: > 100 µM
UACC-62 melanoma
  TGI: > 100 µM
HCT-15 colon
  TGI: > 100 µM
P388/ADR leukemia
  TGI: > 100 µM
LOX IMVI melanoma
  TGI: > 100 µM
M19-MEL melanoma
  TGI: > 100 µM
IGROV1 ovarian
  TGI: > 100 µM
SNB-78 CNS
  TGI: > 88.5 µM
SNB-19 CNS
  TGI: > 100 µM
UACC-257 melanoma
  TGI: 99 µM
XF 498 CNS
  TGI: > 100 µM
OVCAR-3 ovarian
  TGI: > 100 µM
SNB-75 CNS
  TGI: > 100 µM
U251 CNS
  TGI: > 100 µM

## Oc1ccc2c(c1)OCC1(O)Cc3cc(O)c(O)cc3C21 (configuration not stated)
DMS 114 small cell lung
  TGI: 73.5 µM
SR leukemia
  TGI: 99.3 µM
ACHN renal
  TGI: 32.7 µM
K-562 leukemia
  TGI: > 82.6 µM
NCI-H460 lung
  TGI: 37.2 µM
HCT-116 colon
  TGI: 42.4 µM
LXFL 529 NSCLC
  TGI: 34 µM
MDA-MB-231 breast
  GI50: 13 µM
  TGI: 26 µM
SF-539 CNS
  TGI: 36.8 µM
DLD-1 colon
  TGI: 33.9 µM
HS 578T breast
  GI50: 20.4 µM
  TGI: 46.9 µM
HL-60(TB) leukemia
  TGI: 78.3 µM
SF-268 CNS
  TGI: > 68.2 µM
RPMI-8226 leukemia
  TGI: 85.1 µM
HOP-18 NSCLC
  TGI: 32.3 µM
OVCAR-8 ovarian
  TGI: 44.2 µM
PC-3 prostate
  GI50: 18.1 µM
  TGI: 39.4 µM
HOP-62 NSCLC
  TGI: > 73.6 µM
KM20L2 colon
  TGI: > 63 µM
MALME-3M melanoma
  TGI: 32.4 µM
SK-MEL-2 melanoma
  TGI: 62.2 µM
SN12C renal
  TGI: 51.1 µM
NCI-H23 lung
  TGI: 33.4 µM
NCI-H226 lung
  TGI: > 65.2 µM
RXF 393 renal
  TGI: 29.7 µM
DU-145 prostate
  GI50: 10.7 µM
  TGI: 22.5 µM
HOP-92 NSCLC
  TGI: 37.6 µM
CCRF-CEM leukemia
  TGI: 82.8 µM
NCI/ADR-RES ovarian
  GI50: 29.6 µM
  TGI: 97.9 µM
UO-31 renal
  TGI: > 100 µM
KM12 colon
  TGI: 69.2 µM
BT-549 breast
  GI50: 14.8 µM
  TGI: 28 µM
SK-MEL-5 melanoma
  TGI: 34.2 µM
DMS 273 small cell lung
  TGI: > 100 µM
RXF-631 renal
  TGI: > 77.3 µM
SF-295 CNS
  TGI: > 68.3 µM
786-0 renal
  TGI: 34.9 µM
OVCAR-5 ovarian
  TGI: 59.7 µM
HT29 colon
  TGI: 46.5 µM
HCC-2998 colon
  TGI: 36 µM
COLO 205 colon
  TGI: 45.4 µM
A498 renal
  TGI: 39 µM
MCF7 breast
  GI50: 18.4 µM
  TGI: 36 µM
SK-OV-3 ovarian
  TGI: > 79.5 µM
OVCAR-4 ovarian
  TGI: 35.3 µM
NCI-H522 lung
  TGI: 46.7 µM
CAKI-1 renal
  TGI: 32.8 µM
EKVX NSCLC
  TGI: 45.9 µM
SW-620 colon
  TGI: 40.5 µM
SK-MEL-28 melanoma
  TGI: 32.2 µM
M14 melanoma
  TGI: 36.2 µM
A549 NSCLC
  TGI: > 74.6 µM
UACC-62 melanoma
  TGI: 41.9 µM
HCT-15 colon
  TGI: 44.2 µM
TK-10 renal
  TGI: 31.2 µM
LOX IMVI melanoma
  TGI: 37.2 µM
M19-MEL melanoma
  TGI: > 86 µM
IGROV1 ovarian
  TGI: > 73.6 µM
SNB-78 CNS
  TGI: 20 µM
MOLT-4 leukemia
  TGI: 72.9 µM
SNB-19 CNS
  TGI: 73 µM
UACC-257 melanoma
  TGI: 34.4 µM
T-47D breast
  GI50: 19.6 µM
  TGI: 54.4 µM
MDA-MB-435
  GI50: 14.8 µM
  TGI: 28.1 µM
XF 498 CNS
  TGI: 28.8 µM
OVCAR-3 ovarian
  TGI: 30 µM
SNB-75 CNS
  TGI: 67.8 µM
U251 CNS
  TGI: 39.9 µM
